{
  "source": "paper PMC8998350",
  "about": "“The Evidence for Effective Inhibition of INa Produced by Mirogabalin ((1R,5S,6S)-6-(aminomethyl)-3-ethyl-bicyclo [3.2.0] hept-3-ene-6-acetic acid), a Known Blocker of CaV Channels” (International Journal of Molecular Sciences, 2022)",
  "tested_on": "T1, voltage-gated Na+ (NaV) channel",
  "T1 construct": "native channels of pituitary GH3 cells, isoform not resolved",
  "assay": "whole-cell patch clamp of native late INa in GH3 cells",
  "assay_type": "cell-based",
  "data": [
    {"molecule": "CCC1=C[C@@H]2[C@H](C1)C[C@]2(CN)CC(=O)O", "note": "[MGB, (1R,5S,6S)-6-(aminomethyl)-3-ethyl-bicyclo [3.2.0] hept-3-ene-6-acetic acid]", "values": [
      {"measurement": "IC50", "result": 7.3, "unit": "µM"}
    ]}
  ]
}
